Test results taken from US20230348953A1, “HIGH THROUGHPUT, FLUORESCENCE-BASED ESTERASE ACTIVITY ASSAY FOR ASSESSING POLYSORBATE DEGRADATION RISK DURING BIOPHARMACEUTICAL DEVELOPMENT” (GENENTECH, INC., priority 2020, published 2023).
“Also recorded” adds a separate entry of the source.

Legend:
[1] = system: residual hydrolytic HCPs in affinity chromatography purified mAb 2 sample (PS20 degradation); assay: Orlistat incubation, PS20 degradation by FFA (lauric acid) release in mAb 2 sample; assay type: biochemical, CHO (Chinese Hamster Ovary); settings: mAb2 sample, PS20 0.04%, 25° C. 12 days, relative to samples without orlistat
Description: (§1) To investigate the effect of orlistat on PS20 degradation, affinity chromatography purified samples of mAb 2 (28 mg/mL), mAb 6 (22 mg/ml) and mAb 7 (22 mg/ml) were incubated for 5 hours at room temperature in the presence of DMSO (10% v/v) with orlistat (0.2 µM and 20 µM) or without orlistat. The samples were then spiked with PS20 (0.04% v/v) and methionine (20 mg/ml) and incubated at 25° C. for 12 days. After incubation, the samples were analyzed for PS20 hydrolytic degradation by quantifying the FFA degradant (lauric acid) as previously described in detail (Cheng Y, et al., J Pharm Sci. 2019;108(9):2880-2886).

[2] = system: residual hydrolytic HCPs in affinity chromatography purified mAb 6 sample (PS20 degradation); assay: Orlistat incubation, PS20 degradation by FFA (lauric acid) release in mAb 6 sample; assay type: biochemical, CHO (Chinese Hamster Ovary); settings: mAb6 sample, PS20 0.04%, 25° C. 12 days, relative to samples without orlistat
Description: as §1

[3] = system: residual hydrolytic HCPs in affinity chromatography purified mAb 7 sample (PS20 degradation); assay: Orlistat incubation, PS20 degradation by FFA (lauric acid) release in mAb 7 sample; assay type: biochemical, CHO (Chinese Hamster Ovary); settings: mAb7 sample, PS20 0.04%, 25° C. 12 days, relative to samples without orlistat
Description: as §1

[4] = target: T1, Pseudomonas cepacia lipase (PCL) (Burkholderia cepacia, UniProt P22088); assay: Orlistat inhibition, esterase activity assay with MU-C8; assay type: biochemical; settings: orlistat 0.5, 1 and 10 µM; PCL 50 ng/ml; MU-C8 substrate
T1 construct: purchased Sigma Aldrich
Description: (§2) The esterase activity assay monitors the conversion of the non-fluorescent substrates, 4-methylumbelliferyl fatty acid esters, to a fluorescent product, MU, through the cleavage of the ester bond. The reaction mixture contained 80 µl of reaction buffer (150 mM tris chloride pH 8.0, 0.25% (w/v) Triton X-100 and 0.125% (w/v) gum arabic), 10 µl substrate at 1 mM final concentration, and 10 µl model enzyme solution or protein samples. The concentration of each buffer component was selected based on in-house assay development studies (data not shown). […]
(§3) Model enzymes were diluted in water to the desired concentrations. […] The reaction was set up in 96-well plates and the increase of fluorescence signal (using excitation and emission wavelengths of 355 nm and 460 nm, respectively) was monitored every 10 minutes by incubating the reaction plates for two hours at 37° C. in a plate reader. Rate of production of MU, representing the total hydrolytic activity (from enzymatic and non-enzymatic hydrolysis), was derived from the slope of the fluorescence time course from 30 minutes to 120 minutes, and is denoted by the reaction raw rate (kraw). […]
(§4) Orlistat stock solution in DMSO was freshly prepared for each inhibition reaction. […] Rates were adjusted for background fluorescence as measured by the enzyme blank (negative control) wells. […]

[5] = system: lysosomal phospholipase A2 (LPLA2); assay: as above; assay type: biochemical; settings: orlistat 0.5, 1 and 10 µM; LPLA2 50 ng/ml; MU-C8 substrate
Description: as §2, §3, §4

[6] = system: residual HCPs in purified mAb 1 sample; assay: as above; assay type: biochemical, CHO (Chinese Hamster Ovary); settings: orlistat 0.5, 1 and 10 µM vs DMSO control; mAb 1 25 mg/ml during incubation; MU-C8 substrate
Description: as §2, §3, §4

carboxylesterase 2 = target: T2, carboxylesterase 2 (Homo sapiens, UniProt O00748); settings: cited from earlier work
T2 sequence (O00748 27-559): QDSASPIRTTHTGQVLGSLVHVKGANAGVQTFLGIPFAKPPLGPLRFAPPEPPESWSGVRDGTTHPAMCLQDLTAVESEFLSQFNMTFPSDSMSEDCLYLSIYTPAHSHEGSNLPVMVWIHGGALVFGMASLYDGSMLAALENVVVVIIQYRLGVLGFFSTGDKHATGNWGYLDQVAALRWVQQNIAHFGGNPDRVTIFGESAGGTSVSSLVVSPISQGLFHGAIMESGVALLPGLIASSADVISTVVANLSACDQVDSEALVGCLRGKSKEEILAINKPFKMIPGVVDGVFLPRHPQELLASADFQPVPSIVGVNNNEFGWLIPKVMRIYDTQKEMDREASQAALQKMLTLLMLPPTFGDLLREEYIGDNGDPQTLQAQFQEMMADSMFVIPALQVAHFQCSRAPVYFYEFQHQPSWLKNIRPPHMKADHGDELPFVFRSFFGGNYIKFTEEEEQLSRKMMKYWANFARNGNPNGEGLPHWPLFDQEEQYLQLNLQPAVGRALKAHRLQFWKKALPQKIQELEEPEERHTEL

[7] = target: T3, carboxylesterase 1 (CES1) (Homo sapiens, UniProt P23141); settings: cited from earlier work
T3 sequence (P23141 18-567): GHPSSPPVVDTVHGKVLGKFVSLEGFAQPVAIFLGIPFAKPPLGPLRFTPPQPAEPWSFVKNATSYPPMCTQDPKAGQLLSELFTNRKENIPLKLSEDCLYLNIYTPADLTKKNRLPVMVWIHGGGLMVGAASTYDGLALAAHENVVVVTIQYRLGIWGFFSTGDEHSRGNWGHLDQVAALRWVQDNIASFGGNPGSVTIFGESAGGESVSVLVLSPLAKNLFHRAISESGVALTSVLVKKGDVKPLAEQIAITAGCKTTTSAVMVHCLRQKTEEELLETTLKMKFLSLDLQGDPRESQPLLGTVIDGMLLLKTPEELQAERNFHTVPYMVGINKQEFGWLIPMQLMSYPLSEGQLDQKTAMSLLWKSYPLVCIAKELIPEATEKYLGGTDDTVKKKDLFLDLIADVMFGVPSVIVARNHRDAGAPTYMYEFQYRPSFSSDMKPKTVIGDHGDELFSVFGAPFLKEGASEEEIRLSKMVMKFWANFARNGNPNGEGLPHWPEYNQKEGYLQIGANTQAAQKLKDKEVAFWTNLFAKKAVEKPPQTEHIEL

PCL, LPLA2, PLBL2 = assay: Substrate specificity, model enzymes; assay type: biochemical; settings: 0.5 mM substrate; PCL and LPLA2 20 ng/ml, PLBL2 400 µg/ml
Description: (§5) The esterase activity assay monitors the conversion of the non-fluorescent substrates, 4-methylumbelliferyl fatty acid esters, to a fluorescent product, MU, through the cleavage of the ester bond. […] The concentration of each buffer component was selected based on in-house assay development studies (data not shown). A 50 mM tris chloride running buffer at pH 8.0 with 0.01% gum arabic was previously used to determine activity rates in a lipase and esterase activity assay (Nalder TD, et al., Biochimie. 2016;128-129:127-132).

[8] = system: purified protein samples (mAbs 1-3); assay: Substrate specificity, purified protein samples; assay type: biochemical, CHO and E. coli; settings: 0.5 mM substrate; mAbs 1-3 neat, 150-225 mg/ml
Description: as §5

T1 sequence (P22088 45-364): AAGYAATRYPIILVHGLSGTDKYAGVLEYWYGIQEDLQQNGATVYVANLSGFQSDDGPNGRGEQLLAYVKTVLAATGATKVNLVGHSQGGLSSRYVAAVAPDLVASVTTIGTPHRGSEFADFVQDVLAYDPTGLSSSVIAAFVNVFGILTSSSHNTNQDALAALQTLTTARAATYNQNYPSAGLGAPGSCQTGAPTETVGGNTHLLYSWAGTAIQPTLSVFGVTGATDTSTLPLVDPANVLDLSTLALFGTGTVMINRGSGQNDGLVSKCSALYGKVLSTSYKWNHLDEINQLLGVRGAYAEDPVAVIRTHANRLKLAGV

Which “Decrease in FFA Release Rate (%)” value ([1]; orlistat 0.2 µM) does the source give for `CCCCCCCCCCC[C@@H](C[C@@H]1OC(=O)[C@H]1CCCCCC)OC(=O)[C@H](CC(C)C)NC=O` [orlistat, (S)-2-formylamino-4-methyl-pentanoic acid (S)-1-[[(2S,3S)-3-hexyl-4-oxo-2-oxetanyl]methyl]-dodecyl ester] here?
Its value is 31%.

What about the “Decrease in FFA Release Rate (%)” value ([1]; orlistat 20 µM) of the same compound?
The value was 63%.

And the “Decrease in FFA Release Rate (%)” value ([2]; orlistat 0.2 µM)?
The value was 67%.

And the “Decrease in FFA Release Rate (%)” value ([2]; orlistat 20 µM)?
Its value is 91%.

And the “Decrease in FFA Release Rate (%)” value ([3]; orlistat 0.2 µM)?
The value was 39%.

What about the “Decrease in FFA Release Rate (%)” value ([3]; orlistat 20 µM) of the same compound?
Its value is 74%.

What about the “inhibition of esterase activity” value [4] of the same compound?
The value was “complete inhibition”.

And the “inhibition of esterase activity” value [5]?
The value was “complete inhibition”.

What about the “reduction in esterase activity rate” value [6] of the same compound?
The value was “dose-dependent reduction; also recorded: did not completely inhibit”.

What about the “inhibition of carboxylesterase 2” value (carboxylesterase 2) of the same compound?
The value was “significantly inhibited”.

What about the “inhibition of carboxylesterase 1” value [7] of the same compound?
The value was “lack of orlistat potency”.

Which results are given for `CCCCCCCC(=O)Oc1ccc2c(C)cc(=O)oc2c1` [MU-C8, 4-methylumbelliferyl caprylate]?
hydrolysis of MU ester by model enzymes (PCL, LPLA2, PLBL2): hydrolyzed; activity of purified protein samples towards MU ester substrate [8]: most sensitivity

Which “hydrolysis of MU ester by model enzymes” value (PCL, LPLA2, PLBL2) does the source give for `CCCCCCCCCC(=O)Oc1ccc2c(C)cc(=O)oc2c1` [MU-C10, 4-methylumbelliferyl decanoate] here?
Its value is “hydrolyzed”.

For `CCCCCCCC/C=C\CCCCCCCC(=O)Oc1ccc2c(C)cc(=O)oc2c1` [MU-C18:1, 4-methylumbelliferyl oleate], which “activity of purified protein samples towards MU ester substrate” value [8] is on record?
Its value is “did not show activity”.
